In patent US20210294217A1, “ACTINIC RAY-SENSITIVE OR RADIATION-SENSITIVE RESIN COMPOSITION, RESIST FILM, PATTERN FORMING METHOD, AND METHOD FOR MANUFACTURING ELECTRONIC DEVICE” (FUJIFILM Corporation, priority 2019, published 2021):

experiment: acid dissociation constant pKa determined by computation (ACD/Labs Software Package 1; Gaussian 16 DFT where not calculable); details: acid generated from photoacid generator B
Source text: In the present specification, an acid dissociation constant (pKa) represents a pKa in an aqueous solution, and is specifically a value determined by computation from a value based on a Hammett's substituent constant and database of publicly known literature values, using the following software package 1. Any of the pKa values described in the present specification indicates values determined by computation using the software package.
Software Package 1: Advanced Chemistry Development (ACD/Labs) Software V 8.14 for Solaris (1994-2007 ACD/Labs).
As described above, the pKa in the present specification refers to a value determined by computation from a value based on a Hammett's substituent constant and database of publicly known literature values, using the software package 1, but in a case where the pKa cannot be calculated by the method, a value obtained by Gaussian 16 based on density functional theory (DFT) shall be adopted.
In addition, the pKa in the present specification refers to a “pKa in an aqueous solution” as described above, but in a case where the pKa in an aqueous solution cannot be calculated, a “pKa in a dimethyl sulfoxide (DMSO) solution” shall be adopted.
Furthermore, in the measurement of the acid dissociation constant pKa of an acid generated from the photoacid generator B, specifically, the pKa is a value determined by subjecting a compound formed by substituting each cationic moiety in the compounds B-1 to B-25 with H^+ (for example, in a case of the compound B-1, a compound formed by substituting the triphenylsulfonium cation with H^+) to computation from a value based on a Hammett's substituent constant and database of publicly known literature values, using Software Package 1 of ACD/Labs, as described above. In addition, in a case where pKa could not be calculated by the method, a value obtained by Gaussian 16 based on density functional theory (DFT) was adopted.
In the following table, “pKa1” represents an acid dissociation constant of the first stage, “pKa2” represents an acid dissociation constant of the second stage, and “pKa3” represents an acid dissociation constant of the third stage. A smaller value of pKa means a higher acidity. […]

Point of comparison: `O=C(CC(F)(F)F)NS(=O)(=O)C(F)(F)C(F)(F)C(F)(F)S(=O)(=O)NS(=O)(=O)C(F)(F)F` [B-22], “Difference between acid dissociation constant a1 and acid dissociation constant a2” value 10.35. Against it:
- O=C(O)C(F)(F)C(F)(F)C(F)(F)C(=O)OC12CC3CC(CC(COC(=O)C(F)(F)S(=O)(=O)O)(C3)C1)C2 [B-3] — lower, 2.92
- O=C(COC(=O)C(F)(F)S(=O)(=O)O)NC(=O)C(F)(F)F [B-4] — lower, 9.23
- CS(=O)(=O)NC(=O)C(F)(F)C(F)(F)C(F)(F)C(=O)OCC(F)S(=O)(=O)O (centres unmarked) [B-5] — lower, 2.55
- O=C(OCCCS(=O)(=O)O)C(F)(F)S(=O)(=O)O [B-6] — lower, 4.82
- CC1(C)C2CCC1(CS(=O)(=O)NC(=O)C(F)(F)C(F)(F)C(F)(F)F)C(OC(=O)C(F)S(=O)(=O)O)C2 (centres unmarked) [B-8] — lower, 2.20
- O=C(O)N1CCN(S(=O)(=O)C(F)(F)C(F)(F)C(F)(F)S(=O)(=O)NS(=O)(=O)C(F)(F)F)CC1 [B-13] — higher, 15.11
- O=C(O)CCCOC(=O)C(CS(=O)(=O)O)C(F)(F)F (centres unmarked) [B-14] — lower, 3.63
- O=C(O)C1CCCCC1C(=O)OCC(F)C(F)(F)S(=O)(=O)O (centres unmarked) [B-17] — lower, 7.24
- O=S(=O)(O)NCCOC1CCCC(C(F)(F)S(=O)(=O)O)C1 (centres unmarked) [B-18] — lower, 3.2
- O=C(NS(=O)(=O)C(F)(F)C(F)(F)C(F)(F)S(=O)(=O)NS(=O)(=O)C(F)(F)F)c1cc(C(F)(F)F)cc(C(F)(F)F)c1 [B-24] — lower, 9.95
